In patent publication US7981997B2, “Growth factor which acts through ErbB-4 RTK” (Yeda Research And Development Co., priority 2000, dated 2011):

Assays:
[1] = test system: D1 cells (32D expressing ErbB-1); experiment: 32D cell proliferation, 24-hour dose-response MTT assay; format: cell-based; conditions: 24-hour dose-response, without IL-3
Procedure: The indicated derivative lines of 32D cells were tested for cell proliferation using the [3-(4,5-dimethylthiazol-2-yl)-2,5-diphenyl]tetrazolium bromide (MTT) assay. […] The MT assay was performed 24 hours later. Results are presented as percent induction over the control untreated cells, and are the mean±S.D. of 4 determinations. Each experiment was repeated at least twice with similar findings.
(§1) The establishment of a series of interleukin 3 (IL-3)-dependent 32D myeloid cells expressing all combinations of ErbB proteins has been described (Alimandi et al., 1997; Pinkas-Kramarski et al., 1996; Shelly et al., 1998). Cells were maintained in RPMI medium with 10% fetal bovine serum (FBS) and dilute IL3-containing conditioned medium. Prior to proliferation assays, cells were washed three times in RPMI/FBS and plated (5×10^5 cells/ml; 0.1 ml/well) into 96-well flat-bottomed plates with the indicated liconcentrations or with IL-3 (1:1000 dilution of conditioned medium). Cell survival was determined 24 hours later, or after the indicated time intervals, by MTT assay, as previously described (Mosman, 1983). MTT (0.05 mg/ml) was incubated with the analyzed cells for 2 hours at 37 C. Living cells can transform the tetrazolium ring into dark blue formazan crystals, that can be quantified by reading the optical density at 540-630 nm after lysis of the cells with acidic isopropanol. […]

[2] = test system: D12 cells (32D co-expressing ErbB-1 and ErbB-2); experiment: Long-term cell survival assay in the absence of IL-3 (MTT); format: cell-based; conditions: ligand 100 ng/ml, FIG. 3B
Procedure: FIG. 3b show survival effect of NRG-4 on ErbB-expressing derivatives of 32D cells. The indicated derivatives of 32D cells were incubated for various time intervals in the absence of IL-3. […] For control, cells were incubated with medium conditioned by IL-3-producing cells (open triangles), or with no factor (open circles). The extent of cell proliferation was determined daily by using the calorimetric MTT assay. The data presented are the mean±S.D. of 4 determinations. Note that co-expression of ErbB-1 and ErbB-2 (D12 cells) enabled cell survival in the absence of IL-3. The experiment was repeated twice with similar results.
as §1, with “Prior to proliferation assays, cells were washed three times in RPMI/FBS and plated (5×10^5 cells/ml; 0.1 ml/well) into 96-well flat-bottomed plates with the indicated liconcentrations or with IL-3 (1:1000 dilution of conditioned medium).” left out

Substance: EGF: EGF (human, recombinant) purchased from Boehringer Mannheim (NSDSECPLSHDGYCLHDGVCMYIEALDKYACNCVVGYIGERCQYRDLKWWELR) [reference compound]
- mitogenic response of D1 cells [1]: retained
- response of D12 cells (high basal proliferation activity) [2]: still responded
